{"source": "paper PMC8222254", "about": "“Self-assembly of an anion receptor with metal-dependent kinase inhibition and potent in vitro anti-cancer properties” (Nature Communications, 2021)", "assay_in_all_cases": "Chemosensitivity, 96 h continuous exposure, MTT assay", "format_in_all_cases": "cell-based, human", "key": {"PSN1": {"tested_on": "PSN1", "procedure,_shortened": "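Cells seeded at 2 × 10^3/well (GBM1 3 × 10^3/well) and left overnight at 37 °C, then exposed continuously for 96 h to a range of compound concentrations (final DMSO 0.2%). Viability read by MTT, absorbance at 540 nm; IC50 taken from dose-response curves as concentration reducing cell growth by 50%.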"}, "MiaPaCa2": {"tested_on": "MiaPaCa2", "procedure,_shortened": "(§1)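 Cells were seeded overnight at 37 °C (2 × 10^3/well; GBM1 at 3 × 10^3/well on poly-L-ornithine/laminin in Neurobasal with hFGF/rhEGF), then exposed to compound concentration ranges for 96 h. Viability was read by MTT (4 h, formazan in DMSO, A540) and IC50 taken from dose–response curves.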"}, "HCT116 p53+/+": {"tested_on": "HCT116 p53+/+", "procedure,_shortened": "as §1"}, "A549": {"tested_on": "A549", "procedure,_shortened": "as §1"}, "DLD-1": {"tested_on": "DLD-1", "procedure,_shortened": "as §1"}, "BxPC3": {"tested_on": "BxPC3", "procedure,_shortened": "as §1"}, "ARPE-19 non-cancer cells": {"tested_on": "ARPE-19 non-cancer cells", "procedure,_shortened": "as §1"}}, "note": "Several values for one entry are separate records, joined by “and”; a condition that tells them apart may be missing. Identical values can stand only once. Like-named read-outs stand apart in the source and are kept apart here."}
{"smiles": "O=P([O-])([O-])[O-].[Cu+2].[Cu+2].[Cu+2].c1ccc(-c2csc(NCCN(CCNc3nc(-c4ccccn4)cs3)CCNc3nc(-c4ccccn4)cs3)n2)nc1.c1ccc(-c2csc(NCCN(CCNc3nc(-c4ccccn4)cs3)CCNc3nc(-c4ccccn4)cs3)n2)nc1", "note": "[[L2Cu3(PO4)]3+]", "values": [{"measurement": "Selectivity index (ARPE19)", "setting": "PSN1; IC50 ARPE-19 / IC50 PSN1", "value": 9.29}, {"measurement": "Selectivity index (MCF10A)", "setting": "PSN1; IC50 MCF10A / IC50 PSN1", "value": 2.80}, {"measurement": "IC50", "setting": "PSN1; PSN1, mean of replicates, read-out: Mean IC50", "value": 17.6, "unit": "µM"}, {"measurement": "IC50", "setting": "PSN1; PSN1, read-out: Mean IC50 values", "value": 17.6, "unit": "µM"}, {"measurement": "IC50", "setting": "PSN1; PSN1, single replicate, read-out: IC50 values for each replicate", "value": "18.4 µM and 18.6 µM and 17.5 µM and 15.9 µM"}, {"measurement": "Relative potency (+ anion to no anion), Ratio + anion:no anion", "setting": "PSN1; ratio of IC50, PSN1", "value": 2.73}, {"measurement": "Selectivity indices relative to ARPE-19, Ratio + anion:no anion", "setting": "PSN1; ratio of SI (ARPE-19), PSN1", "value": 1.138}, {"measurement": "Selectivity indices relative to MCF10A, Ratio + anion:no anion", "setting": "PSN1; ratio of SI (MCF 10A), PSN1", "value": 0.374}, {"measurement": "Selectivity index (ARPE19)", "setting": "MiaPaCa2; IC50 ARPE-19 / IC50 MiaPaCa2", "value": 1.36}, {"measurement": "Selectivity index (MCF10A)", "setting": "MiaPaCa2; IC50 MCF10A / IC50 MiaPaCa2", "value": 0.41}, {"measurement": "IC50", "setting": "MiaPaCa2; MiaPaCa2, mean of replicates, read-out: Mean IC50", "value": 121, "unit": "µM"}, {"measurement": "IC50", "setting": "MiaPaCa2; MiaPaCa2, read-out: Mean IC50 values", "value": 121, "unit": "µM"}, {"measurement": "IC50", "setting": "MiaPaCa2; MiaPaCa2, single replicate, read-out: IC50 values for each replicate", "value": "108 µM and 145 µM and 109 µM"}, {"measurement": "Relative potency (+ anion to no anion), Ratio + anion:no anion", "setting": "MiaPaCa2; ratio of IC50, MiaPaCa2", "value": 10.22}, {"measurement": "Selectivity indices relative to ARPE-19, Ratio + anion:no anion", "setting": "MiaPaCa2; ratio of SI (ARPE-19), MiaPaCa2", "value": 0.305}, {"measurement": "Selectivity indices relative to MCF10A, Ratio + anion:no anion", "setting": "MiaPaCa2; ratio of SI (MCF 10A), MiaPaCa2", "value": 0.100}, {"measurement": "IC50", "setting": "HCT116 p53+/+; HCT116 p53+/+, mean of replicates, read-out: Mean IC50", "value": 3.39, "unit": "µM"}, {"measurement": "IC50", "setting": "HCT116 p53+/+; HCT116 p53+/+, read-out: Mean IC50 values", "value": 3.39, "unit": "µM"}, {"measurement": "IC50", "setting": "HCT116 p53+/+; HCT116 p53+/+, single replicate, read-out: IC50 values for each replicate", "value": "5.27 µM and 3.75 µM and 2.15 µM and 2.08 µM and 1.85 µM"}, {"measurement": "Selectivity index (ARPE19)", "setting": "HCT116 p53+/+; IC50 ARPE-19 / IC50 HCT116 p53+/+", "value": 48.25}, {"measurement": "Selectivity index (MCF10A)", "setting": "HCT116 p53+/+; IC50 MCF10A / IC50 HCT116 p53+/+", "value": 14.55}, {"measurement": "Relative potency (+ anion to no anion), Ratio + anion:no anion", "setting": "HCT116 p53+/+; ratio of IC50, HCT116 p53+/+", "value": 6.84}, {"measurement": "Selectivity indices relative to ARPE-19, Ratio + anion:no anion", "setting": "HCT116 p53+/+; ratio of SI (ARPE-19), HCT116 p53+/+", "value": 0.455}, {"measurement": "Selectivity indices relative to MCF10A, Ratio + anion:no anion", "setting": "HCT116 p53+/+; ratio of SI (MCF 10A), HCT116 p53+/+", "value": 0.150}, {"measurement": "IC50", "setting": "A549; A549, mean of replicates, read-out: Mean IC50", "value": 1.22, "unit": "µM"}, {"measurement": "IC50", "setting": "A549; A549, read-out: Mean IC50 values", "value": 1.22, "unit": "µM"}, {"measurement": "Selectivity index (ARPE19)", "setting": "A549; IC50 ARPE-19 / IC50 A549", "value": 134.46}, {"measurement": "Selectivity index (MCF10A)", "setting": "A549; IC50 MCF10A / IC50 A549", "value": 40.54}, {"measurement": "Relative potency (+ anion to no anion), Ratio + anion:no anion", "setting": "A549; ratio of IC50, A549", "value": 5.23}, {"measurement": "Selectivity indices relative to ARPE-19, Ratio + anion:no anion", "setting": "A549; ratio of SI (ARPE-19), A549", "value": 0.595}, {"measurement": "Selectivity indices relative to MCF10A, Ratio + anion:no anion", "setting": "A549; ratio of SI (MCF 10A), A549", "value": 0.196}, {"measurement": "IC50", "setting": "DLD-1; DLD-1, mean of replicates, read-out: Mean IC50", "value": 0.637, "unit": "µM"}, {"measurement": "IC50", "setting": "DLD-1; DLD-1, read-out: Mean IC50 values", "value": 0.637, "unit": "µM"}, {"measurement": "IC50", "setting": "DLD-1; DLD-1, single replicate, read-out: IC50 values for each replicate", "value": "0.613 µM and 0.668 µM and 0.654 µM"}, {"measurement": "Selectivity index (ARPE19)", "setting": "DLD-1; IC50 ARPE-19 / IC50 DLD-1", "value": 257.10}, {"measurement": "Selectivity index (MCF10A)", "setting": "DLD-1; IC50 MCF10A / IC50 DLD-1", "value": 77.52}, {"measurement": "Relative potency (+ anion to no anion), Ratio + anion:no anion", "setting": "DLD-1; ratio of IC50, DLD-1", "value": 4.83}, {"measurement": "Selectivity indices relative to ARPE-19, Ratio + anion:no anion", "setting": "DLD-1; ratio of SI (ARPE-19), DLD-1", "value": 0.645}, {"measurement": "Selectivity indices relative to MCF10A, Ratio + anion:no anion", "setting": "DLD-1; ratio of SI (MCF 10A), DLD-1", "value": 0.212}, {"measurement": "IC50", "setting": "BxPC3; BXPC3, mean of replicates, read-out: Mean IC50", "value": 1.68, "unit": "µM"}, {"measurement": "IC50", "setting": "BxPC3; BXPC3, read-out: Mean IC50 values", "value": 1.68, "unit": "µM"}, {"measurement": "IC50", "setting": "BxPC3; BXPC3, single replicate, read-out: IC50 values for each replicate", "value": "0.704 µM and 1.94 µM and 2.09 µM and 2.25 µM and 1.43 µM"}, {"measurement": "Selectivity index (ARPE19)", "setting": "BxPC3; IC50 ARPE-19 / IC50 BXPC3", "value": 97.37}, {"measurement": "Selectivity index (MCF10A)", "setting": "BxPC3; IC50 MCF10A / IC50 BXPC3", "value": 29.36}, {"measurement": "Relative potency (+ anion to no anion), Ratio + anion:no anion", "setting": "BxPC3; ratio of IC50, BXPC3", "value": 5.74}, {"measurement": "Selectivity indices relative to ARPE-19, Ratio + anion:no anion", "setting": "BxPC3; ratio of SI (ARPE-19), BXPC3", "value": 0.542}, {"measurement": "Selectivity indices relative to MCF10A, Ratio + anion:no anion", "setting": "BxPC3; ratio of SI (MCF 10A), BXPC3", "value": 0.178}, {"measurement": "IC50", "setting": "ARPE-19 non-cancer cells; ARPE-19, mean of replicates, read-out: Mean IC50", "value": 164, "unit": "µM"}, {"measurement": "IC50", "setting": "ARPE-19 non-cancer cells; ARPE-19, single replicate, read-out: IC50 values for each replicate", "value": "144 µM and 157 µM and 173 µM and 182 µM"}, {"measurement": "IC50", "setting": "ARPE-19 non-cancer cells; ARPE-19 non-cancer, read-out: Mean IC50 values", "value": 164, "unit": "µM"}, {"measurement": "Relative potency (+ anion to no anion), Ratio + anion:no anion", "setting": "ARPE-19 non-cancer cells; ratio of IC50, ARPE-19", "value": 3.11}]}
